Test results from US8119681B2, “2-[1-phenyl-5-hydroxy or methoxy-4alpha-methyl-hexahydrocyclopenta [ƒ]indazole-5-YL]ethyl phenyl derivatives as glucocorticoid receptor ligands” (Merck Sharp & Dohme Corp., priority 2006, dated 2012).

How the values were obtained:
human GR [1] = molecular target: T1, human GR (Homo sapiens, UniProt P04150); assay: Trans-Activation Modulation of Glucocorticoid Receptor (GRAMMER), MMTV-LUC reporter gene; format: cell-based; parameters: endogenous in cells; details: for Emax: A549; for EC50: A549 cells, IP = inflection point
T1 sequence (P04150 1-777): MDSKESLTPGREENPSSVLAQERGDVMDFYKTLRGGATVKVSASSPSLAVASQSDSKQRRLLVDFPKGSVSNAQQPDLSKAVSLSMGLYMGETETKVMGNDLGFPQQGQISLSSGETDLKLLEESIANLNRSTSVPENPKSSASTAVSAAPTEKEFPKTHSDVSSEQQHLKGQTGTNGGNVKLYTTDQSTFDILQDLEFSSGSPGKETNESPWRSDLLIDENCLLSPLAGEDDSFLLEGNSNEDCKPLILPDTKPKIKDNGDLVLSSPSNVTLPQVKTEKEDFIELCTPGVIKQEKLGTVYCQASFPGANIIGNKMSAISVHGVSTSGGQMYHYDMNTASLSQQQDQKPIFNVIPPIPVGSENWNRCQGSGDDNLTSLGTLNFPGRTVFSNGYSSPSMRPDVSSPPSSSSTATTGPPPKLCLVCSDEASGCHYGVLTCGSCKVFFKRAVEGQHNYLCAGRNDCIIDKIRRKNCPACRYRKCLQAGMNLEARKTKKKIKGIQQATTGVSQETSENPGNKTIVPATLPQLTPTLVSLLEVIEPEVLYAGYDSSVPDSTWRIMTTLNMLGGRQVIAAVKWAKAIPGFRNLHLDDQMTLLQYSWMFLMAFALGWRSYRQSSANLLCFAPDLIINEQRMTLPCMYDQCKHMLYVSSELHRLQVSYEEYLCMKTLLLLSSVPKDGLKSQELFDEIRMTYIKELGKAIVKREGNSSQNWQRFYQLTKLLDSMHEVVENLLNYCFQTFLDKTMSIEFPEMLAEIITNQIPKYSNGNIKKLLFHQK
From the text: Trans-Activation Modulation of Glucocorticoid Receptor (GRAMMER)
This assay assesses the ability of test compounds to control transcription from the MMTV-LUC reporter gene in lung adenocarcinoma A549 cells or HeLa cells, a human […] cell line that naturally expresses the human GR. The assay measures induction of a modified MMTV LTR/promoter linked to the LUC reporter gene.
The routine transient assay consists of plating 7,000-25,000 cells/well of a white, clear-bottom 96-well plate. Alternatively, 384-well plates can be used at a cell concentration of 10,000/well. The media that the cells are plated in is “exponential growth medium” which consists of phenol red-free RPMI1640 containing 10% FBS, 4 mM L-glutamine, 20 mM HEPES, 10 ug/mL human insulin, and 20 ug/mL gentamicin. Incubator conditions are 37° C. and 5% CO2. The transfection is done in batch mode. The cells are trypsinized and counted to the right cell number in the proper amount of fresh media. It is then gently mixed with the FuGene6/DNA mix and plated onto the 96 or 384-well plate, all the wells receive 100 uL or 40 uL, respectively, of medium+lipid/DNA complex then incubated 37° C. overnight. The transfection cocktail consists of serum-free OptiMEM, FuGene6 reagent and DNA. The manufacturer's (Roche Biochemical) protocol for cocktail setup is as follows: The lipid to DNA ratio is approximately 2.5:1 and the incubation time is 20 min at room temperature. Sixteen to 24 hours after transfection, the cells are treated with dexamethasone to a final concentration of 10 nM as well as the compound of interest, such that final DMSO (vehicle) concentration is equal to or less than 1%. Each plate also contains samples that are treated with 10 nM dexamethasone alone, which is used as the 100% activity control. The cells are exposed to the compounds for 24 hours. After 24 hours, the cells are lysed by a Promega cell culture lysis buffer for approximately 30 min and then the luciferase activity in the extracts is assayed in the 96-well format luminometer. In 384-well format, Steady-Glo (Promega) or Steady-Lite (PerkinElmer) can be used by adding an equal volume of reagent to the media present in each well. Activity induced by 10 nM dexamethasone alone is set at 100% activity. Antagonist activity is calculated by determining the decrease in dexamethasone-induced activity in response to compound treatment relative to samples that were treated with dexamethasone alone. […] This transactivation assay can be performed in an agonist and antagonist mode to identify these different activities. […]

human GR [2] = molecular target: T1, human GR; assay: Transrepression Assay (GITAR), TNFα-β-lactamase reporter gene in U937 cells; format: cell-based; parameters: U937 cells contain an endogenous glucocorticoid receptor (GR); endogenous in cells; host or cells: U937 cells stably transfected with the TNF-α promoter/β-lactamase reporter only; details: for EC50: IP = inflection point; for GITAR > GRAMM % SEP: separation of GITAR Emax over GRAMMER Emax; for Emax: U-937
Procedure, shortened: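 Reporter readout used CCF2-AM loading for 70–90 min at room temperature after overnight (~18 h, 37 °C) PMA (5 ng/ml final) and LPS (100 ng/ml final) stimulation of compound-treated (30–45 min) TNFα-β-lactamase U937 cells expressing native GR. Activity was normalised to 100 nM dexamethasone repression.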

[3] = read-out: Transactivation A549 Cells GRAMMER Emax (%)
[4] = Table 1, read-out: Transactivation A549 Cells GRAMMER IP
[5] = Table 1, U937 cells, read-out: Transrepression U937 Cells GITAR IP
[6] = 100 nM dexamethasone = 100% activity, read-out: maximal activity in the transrepression assay
[7] = Table 1, U937 cells, activity repressed by 100 nM dexamethasone = 100%, read-out: Transrepression U937 Cells GITAR Emax (%)

| SMILES | Emax (human GR [1]; [3]) | EC50 (human GR [1]; [4]) | EC50 (human GR [2]; [5]) | GITAR > GRAMM % SEP (human GR [2]; Table 1) | Emax (human GR [2]; [6]) | Emax (human GR [2]; [7]) | Emax (human GR [1]; read-out: Transactiviation A549 Cells GRAMMER Emax (%)) | EC50 (human GR [1]; Table 2, read-out: Transactiviation A549 Cells GRAMMER IP) | EC50 (human GR [2]; Table 2, U937 cells, read-out: Transactiviation U937 Cells GITAR IP) | GITAR > GRAMM % SEP (human GR [2]; Table 2) | Emax (human GR [2]; Table 2, U937 cells, activity repressed by 100 nM dexamethasone = 100%, read-out: Transactiviation U937 Cells GITAR Emax (%)) |
| --- | --- | --- | --- | --- | --- | --- | --- | --- | --- | --- | --- |
| CC(O)(C(N)=O)c1ccccc1CC[C@]1(O)CCC2=Cc3c(cnn3-c3ccc(F)cc3)C[C@@]21C (single isomer, unassigned) [Example 150] | 38% | 0.264 µM | 0.21 µM | 29% | 5 to 100% | 67% | – | – | – | – | – |
| CC(C(N)=O)c1ccccc1CC[C@]1(O)CCC2=Cc3c(cnn3-c3ccc(F)cc3)C[C@@]21C (single isomer, unassigned) [Example 196] | 20% | 0.253 µM | 0.287 µM | 20% | 5 to 100% | 40% | – | – | – | – | – |
| C[C@]12Cc3cnn(-c4ccc(F)cc4)c3C=C1CC[C@@]2(O)CCc1ccccc1 [Example 2 WO 2004/075840 A2, reference compound] | – | – | – | – | – | – | 73% | 0.23 µM | 0.204 µM | 5% | 78% |
| C[C@]12Cc3cnn(-c4ccc(F)cc4)c3C=C1CC[C@@]2(O)CCc1ccccc1N1CCC1=O [Example 11, 1-(2-{2-[(4αS,5R)-1-(4-fluorophenyl)-5-hydroxy-4α-methyl-1,4,4α,5,6,7-hexahydrocyclopenta[f]indazol-5-yl]ethyl}phenyl)azetidin-2-one] | 39% | 0.29 µM | 0.208 µM | 17% | 5 to 100% | 57% | – | – | – | – | – |

Now from value to compound:

| Emax (human GR [1]; [3]) | EC50 (human GR [1]; [4]) | EC50 (human GR [2]; [5]) | GITAR > GRAMM % SEP (human GR [2]; Table 1) | Emax (human GR [2]; [6]) | Emax (human GR [2]; [7]) | Emax (human GR [1]; read-out: Transactiviation A549 Cells GRAMMER Emax (%)) | EC50 (human GR [1]; Table 2, read-out: Transactiviation A549 Cells GRAMMER IP) | EC50 (human GR [2]; Table 2, U937 cells, read-out: Transactiviation U937 Cells GITAR IP) | GITAR > GRAMM % SEP (human GR [2]; Table 2) | Emax (human GR [2]; Table 2, U937 cells, activity repressed by 100 nM dexamethasone = 100%, read-out: Transactiviation U937 Cells GITAR Emax (%)) | SMILES |
| --- | --- | --- | --- | --- | --- | --- | --- | --- | --- | --- | --- |
| 29% | 0.187 µM | 0.197 µM | 23% | 5 to 100% | 52% | – | – | – | – | – | C[C@]12Cc3cnn(-c4ccc(F)cc4)c3C=C1CC[C@@]2(O)CCc1ccccc1C(F)C(N)=O (single isomer, unassigned) [Example 198] |
| 51% | 0.039 µM | 0.088 µM | 14% | 5 to 100% | 65% | – | – | – | – | – | CCNC(=O)c1ccccc1CC[C@]1(O)CCC2=Cc3c(cnn3-c3ccc(F)cc3)C[C@@]21C [Example 2, N-ethyl-2-{2-[(4αS,5R)-1-(4-fluorophenyl)-5-hydroxy-4α-methyl-1,4,4α,5,6,7-hexahydrocyclopenta[f]indazol-5-yl]ethyl}benzamide] |
| 40% | 0.138 µM | 0.179 µM | – | 5 to 100% | 64% | – | – | – | – | – | C[C@]12Cc3cnn(-c4ccc(F)cc4)c3C=C1CC[C@@]2(O)CCc1ccccc1CNS(=O)(=O)C1CC1 [Example 5, N-(2-{2-[(4αS,5R)-1-(4-fluorophenyl)-5-hydroxy-4α-methyl-1,4,4α,5,6,7-hexahydrocyclopenta[f]indazol-5-yl]ethyl}benzyl)cyclopropanesulfonamide] |
| 55% | 0.175 µM | 0.193 µM | 23% | 5 to 100% | 79% | – | – | – | – | – | CC(=O)Nc1ccccc1CC[C@]1(O)CCC2=Cc3c(cnn3-c3ccc(F)cc3)C[C@@]21C [Example 14, N-(2-{2-[(4αS,5R)-1-(4-fluorophenyl)-5-hydroxy-4α-methyl-1,4,4α,5,6,7-hexahydrocyclopenta[f]indazol-5-yl]ethyl}phenyl)acetamide] |
| 43% | 0.236 µM | 0.242 µM | 36% | 5 to 100% | 79% | – | – | – | – | – | C[C@]12Cc3cnn(-c4ccc(F)cc4)c3C=C1CC[C@@]2(O)CCc1ccccc1NS(=O)(=O)C1CC1 [Example 15, N-(2-{2-[(4αS,5R)-1-(4-fluorophenyl)-5-hydroxy-4α-methyl-1,4,4α,5,6,7-hexahydrocyclopenta[f]indazol-5-yl]ethyl}phenyl)cyclopropanesulfonamide] |
| 46% | 0.127 µM | 0.187 µM | 33% | 5 to 100% | 79% | – | – | – | – | – | C[C@]12Cc3cnn(-c4ccc(F)cc4)c3C=C1CC[C@@]2(O)CCc1ccccc1S(C)(=O)=O [Example 19, (4αS,5R)-1-(4-fluorophenyl)-4α-methyl-5-{2-[2-(methylsulfonyl)phenyl]ethyl}-1,4,4α,5,6,7-hexahydrocyclopenta[f]indazol-5-ol] |
